Assay results taken from patent US20050228180A1, “Alpha, omega-dicarboximide derivatives as useful uro-selective a1a adrenoceptor blockers” (priority 2002, published 2005).
Structures can show the parent of a compound that is named as a salt.

How the values were obtained:
α1A adrenoceptor = target: T1, α1A adrenoceptor (Rattus norvegicus, UniProt P43140); assay: Radioligand binding, [3H] prazosin displacement, rat submaxillary membranes; conditions: for Ki: [3H] prazosin displacement, rat submaxillary membranes, read-out: Affinity (Ki) α1A (Rat Submaxillary); for α1B/α1A: ratio of binding affinities, rat liver / rat submaxillary
T1 construct: from tissue; host or cells: rat submaxillary gland membranes
T1 sequence (P43140 1-466): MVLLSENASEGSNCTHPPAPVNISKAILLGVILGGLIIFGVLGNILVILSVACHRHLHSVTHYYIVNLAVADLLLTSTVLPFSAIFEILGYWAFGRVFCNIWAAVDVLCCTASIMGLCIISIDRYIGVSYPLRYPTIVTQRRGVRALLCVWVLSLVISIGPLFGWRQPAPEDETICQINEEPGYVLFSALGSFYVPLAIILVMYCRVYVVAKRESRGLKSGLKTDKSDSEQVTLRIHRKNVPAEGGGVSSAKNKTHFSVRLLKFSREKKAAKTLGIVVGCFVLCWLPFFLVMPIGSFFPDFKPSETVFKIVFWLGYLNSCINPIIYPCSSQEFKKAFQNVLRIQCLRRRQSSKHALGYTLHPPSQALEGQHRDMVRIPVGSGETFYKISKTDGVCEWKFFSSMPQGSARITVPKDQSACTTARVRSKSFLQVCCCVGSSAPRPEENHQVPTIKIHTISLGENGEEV
Description: (§1) Receptor binding assays were performed using native a-adrenoceptors. The affinity of different compounds for α1A and α1B adrenoceptor subtypes was evaluated by studying their ability to displace specific [^3H] prazosin binding from the membranes of rat submaxillary and liver respectively (Michel et al., Br J Pharmacol, 1989: 98:883). The binding assays were performed according to U+Prichard et al. (Eur J Pharmacol, 1978; 50:87 with minor modifications.
(§2) Submaxillary glands were isolated immediately after sacrifice. The liver was perfused with buffer (Tris HCl 50 mM, NaCl 100 mM, 10 mM EDTA pH 7.4). The tissues were homogenised in 10 volumes of buffer (Tris HCl 50 mM, NaCl 100 mM, 10 mM EDTA pH 7.4). The homogenate was filtered through two layers of wet gauge and filtrate was centrifuged at 500 g for 10 min. The supernatant was subsequently centrifuged at 40,000 g for 45 min. The pellet thus obtained was resuspended in the same volume of assay buffer (Tris HCl 50 mM, 5 mM EDTA pH 7.4) and was stored at −70° C. until the time of assay.
(§3) The membrane homogenates (150-250 μg protein) were incubated in 250 μl of assay buffer (Tris HCl 50 mM, EDTA 5 mM, pH 7.4) at 24-25° C. for 1 hour. Non specific binding was determined in the presence of 300 nM prazosin. The incubation was terminated by vacuum filtration over GF/B fibre filters. The filters were then washed with ice cold 50 mM Tris HCl buffer (pH 7.4). The filtermats were dried and bound radioactivity retained on filters was counted. The IC50 and Kd were estimated by using the non-linear curve-fitting program using G Pad Prism software. The value of inhibition constant Ki was calculated from competitive binding studies by using Cheng & Prusoff equation (Cheng & Prusoff, Biochem Pharmacol, 1973, 22: 3099-3108), Ki=IC50/(1+L/Kd) where L is the concentration of [^3H] prazosin used in the particular experiment (Table 1).

α1B adrenoceptor = target: T2, α1B adrenoceptor (Rattus norvegicus, UniProt P15823); assay: Radioligand binding, [3H] prazosin displacement, rat liver membranes; conditions: read-out: Affinity (Ki) α1B (Rat Liver)
T2 construct: from tissue; host or cells: rat liver membranes
T2 sequence (P15823 1-515): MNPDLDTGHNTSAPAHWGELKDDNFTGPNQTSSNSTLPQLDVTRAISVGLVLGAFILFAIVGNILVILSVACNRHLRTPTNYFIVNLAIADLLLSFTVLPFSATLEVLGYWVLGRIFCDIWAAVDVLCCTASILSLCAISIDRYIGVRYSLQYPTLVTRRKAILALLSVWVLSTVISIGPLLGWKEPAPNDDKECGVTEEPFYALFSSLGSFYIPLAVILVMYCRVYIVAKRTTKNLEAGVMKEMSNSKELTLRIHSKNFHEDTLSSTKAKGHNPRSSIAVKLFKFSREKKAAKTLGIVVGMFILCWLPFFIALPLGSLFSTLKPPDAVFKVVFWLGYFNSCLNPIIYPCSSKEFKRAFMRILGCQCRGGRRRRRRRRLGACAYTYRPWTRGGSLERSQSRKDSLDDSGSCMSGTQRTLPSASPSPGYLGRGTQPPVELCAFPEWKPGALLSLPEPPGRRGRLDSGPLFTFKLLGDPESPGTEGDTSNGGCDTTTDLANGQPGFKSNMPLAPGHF
Description: as §1, §2, §3

| SMILES | Ki (α1A adrenoceptor) | α1B/α1A (α1A adrenoceptor) | Ki (α1B adrenoceptor) | α1B/α1A (α1A adrenoceptor; hydrochloride) |
| --- | --- | --- | --- | --- |
| CCOC(=O)CN(CCCN1C(=O)C2CC=CCC2C1=O)CCNc1ccccc1OC(C)C (stereo not drawn) [Compound No. 52, 2-[N-{N′-(2-Isopropoxyphenyl)aminoethyl}ethylacetate-aminopropyl]-3a,4,7,7a-tetrahydro-1H-isoindole-1,3(2H)-dione] | 351 nM | >43 | > 15000 nM |  |
| CC(C)Oc1ccccc1NCCN(C=O)CCCN1C(=O)C2CC=CCC2C1=O (stereo not drawn) [Compound No. 53, 2-[N-{N′-(2-Isopropoxyphenyl)aminoethyl}formylaminopropyl]-3a,4,7,7a-tetrahydro-1H-isoindole-1,3(2H)-dione] | 74 nM | >203 | > 15000 nM |  |
| CC(C)Oc1ccccc1N1CCN(CCCN2C(=O)C3CC=CCC3C2=O)CC1=O (stereo not drawn) [Compound No. 54] | 7290 nM | >2 | > 15000 nM |  |
| COc1ccccc1[N+]1([O-])CCN(CCCN2C(=O)CCCC2=O)CC1 [Compound No. 55, 1-[4-(2-Methoxyphenyl)piperazin-1-yl-4-N-oxide]-3-(2,6-dioxopiperidin-1-yl]propane] | 72 nM | 51 | 3640 nM |  |
| COc1ccccc1NCCNCCCN1C(=O)CCCC1=O [Compound No. 56, 1-[N-{N′-(2-Methoxyphenyl)aminoethyl}]-3-(2,6-dioxopiperidin-1-yl)aminopropane hydrochloride] | > 100 nM | >10 | 992 nM |  |
| COc1ccccc1NCCNCCCN1C(=O)CCCC1=O.Cl [Compound No. 57, 1-[N—N-{N′-(2-Methoxyphenyl)aminoethyl}]-3-(2,6-dioxopiperidin-1-yl)aminopropane hydrochloride] | > 1000 nM | 1 | > 1000 nM |  |
| CC(=O)Nc1ccc(N2CCN(CCCN3C(=O)C4CC=CCC4C3=O)CC2)c(OC(C)C)c1.Cl (stereo not drawn) [Compound No. 58, 2-[3-{4-(2-Isopropoxy-4-acetylaminophenyl)piperazin-1-yl}propyl]-3a,4,7,7a-tetrahydro-1H-isoindole-1,3(2H)-dione hydrochloride] | 160 nM | 10 | > 1000 nM |  |
| CC(C)Oc1ccccc1N1CCN(CCCN2C(=O)C3=CC=CCC3C2=O)CC1.Cl (stereo not drawn) [Compound No. 59, 2-[3-{4-(2-Isopropoxyphenyl)piperazin-1-yl}propyl]-7,7a-dihydro-1H-isoindole-1,3(2H)-dione hydrochloride] | 2.3 nM | 21 | 48 nM |  |
| CC(C)Oc1ccccc1N1CCN(CCCN2C(=O)[C@@H]3[C@H](C2=O)[C@H]2C=C[C@@H]3O2)CC1 [Compound No. 61, 2-[3-{4-(2-Isopropoxyphenyl)piperazin-1-yl}-propyl]-exo-4,7-epoxy-3a,4,7,7a-tetrahydro-1H-isoindole-1,3(2H)-dione hydrochloride] | 0.93 nM | 31 | 29 nM |  |
| CC(C)Oc1ccccc1N1CCN(CCC(=O)N2C(=O)C3CC=CCC3C2=O)CC1.Cl (stereo not drawn) [Compound No. 62, 2-[3-{4-(2-Isopropoxyphenyl)piperazin-1-yl}-1-oxo-propyl]-3a,4,7,7a-tetrahydro-1H-isoindole-1,3(2H)-dione hydrochloride] | > 1000 nM | 1 | > 1000 nM |  |
| CC(C)Oc1ccccc1N1CCN(CCC(=O)N2C(=O)C3CCCCC3C2=O)CC1.Cl (stereo not drawn) [Compound No. 63, 2-[3-{4-(2-Isopropoxyphenyl)piperazin-1-yl}-1-oxo-propyl]-3a,4,5,6,7,7a-hexahydro-1H-isoindole-1,3(2H)-dione hydrochloride] | > 100 nM | >10 | > 1000 nM |  |
| CC(C)Oc1ccccc1[N+]1([O-])CCN(CCCN2C(=O)C3CC=CCC3C2=O)CC1 (stereo not drawn) [Compound No. 64, 2-[3-{4-(2-Isopropoxyphenyl)piperazin-1-yl,4-N-oxide}propyl]-3a,4,7,7a-tetrahydro-1H-isoindole-1,3(2H)-dione] | 28.5 nM | 31 | 870 nM |  |
| CC(C)Oc1ccccc1N1CC[N+]([O-])(CC(O)CN2C(=O)C3CC=CCC3C2=O)CC1 (stereo not drawn) [Compound No. 65, 2-[3-{4-(2-Isopropoxyphenyl)piperazin-1-yl,1-N-oxide}2-hydroxypropyl]-3a,4,7,7a-tetrahydro-1H-isoindole-1,3(2H)-dione] | > 1000 nM | 1 | > 1000 nM |  |
| CCOc1ccccc1N1CCN(CCCN2C(=O)C3CC(O)C(O)CC3C2=O)CC1 (stereo not drawn) [Compound No. 66, hydrochloride] | 5.2 nM |  | 167 nM | 32 |
| CC(C)Oc1ccccc1N1CCN(CCCN2C(=O)C3CC=CCC3C2=O)C1=O (stereo not drawn) [Compound No. 67, 2-[3-{3-(2-Isopropoxyphenyl)imidazolidon-1-yl}propyl]-3a,4,7,7a-tetrahydro-1H-isoindole-1,3(2H)-dione] | 189 nM | >53 | > 10000 nM |  |
| CC(C)Oc1ccccc1N(CCO)CCNCCCN1C(=O)C2CC=CCC2C1=O (stereo not drawn) [Compound No. 68, 2-[N-{N′-(2-Isopropoxyphenyl)aminoethyl}aminopropyl-N′-(β-hydroxyethyl]-3a,4,7,7a-tetrahydro-1H-isoindole-1,3(2H)-dione hydrochloride] | 229 nM | >44 | > 10000 nM |  |
| COc1ccccc1N1CC[N+]([O-])(CC(O)CN2C(=O)CCCC2=O)CC1 (stereo not drawn) [Compound No. 69, 1-[4-(2-Methoxyphenyl)piperazin-1-yl-1-N-oxide]-3-(2,6-dioxopiperidin-1-yl]-2-hydroxypropane] | 7160 nM | >10 | > 10000 nM |  |
| O=C1CCCC(=O)N1CCC[N+]1([O-])CCN(c2ccccc2O)CC1 [Compound No. 70, 1-[4-(2-Hydroxyphenyl)piperazin-1-yl-1-N-oxide]-3-(2,6-dioxopiperidin-1-yl]propane] | 6750 nM | 0.7 | 4920 nM |  |
| CC(C)Oc1ccccc1N1CCN(CCCN2C(=O)C3CC=CCC3C2=O)C(=O)C1=O (stereo not drawn) [Compound No. 71, 2-[3-{4-(2-Isopropoxyphenyl)-2,3-dioxopiperazin-1-yl}-propyl]-3a,4,7,7a-tetrahydro-1H-isoindole-1,3(2H)-dione] | > 1000 nM | 1 | > 10000 nM |  |
| CC(C)Oc1ccccc1N1CCN(CCCN2C(=O)C3C(O)C=CC(O)C3C2=O)CC1 (stereo not drawn) [Compound No. 72, 2-[3-{4-(2-Isopropoxyphenyl)piperazin-1-yl}propyl]-4,7-dihydroxy-3a,4,7,7a-tetrahydro-1H-isoindole-1,3(2H)-dione] | 0.54 nM | 263 | 142 nM |  |
| CCN(CCCN1C(=O)C2CC=CCC2C1=O)CCNc1ccccc1OC(C)C (stereo not drawn) [Compound No. 74, 2-[N-{N′-(2-Isopropoxyphenyl)aminoethyl}ethylaminopropyl]-3a,4,7,7a-tetrahydro-1H-isoindole-1,3(2H)-dione] | 202 nM | >74 | > 15000 nM |  |
